Experimental data reported in article PMC9186412, “Rational Framework for the Design of Trp- and Arg-Rich Peptide Antibiotics Against Multidrug-Resistant Bacteria” (Frontiers in Microbiology, 2022).
Values after ≈ are worked out from the molar mass of the structure shown. Like-named read-outs stand apart in the source and are kept apart here. Each block holds one compound with its values, some of them ahead of it. Where no end group is shown, it is not given here.

Tests used:
[1] = test system: CDC AR isolates; design: key: S (green), susceptible; I (blue), intermediate; R (red), resistant; conditions: Staphylococcus aureus SA461, CDC AR isolate; data provided by the CDC; ref CDC; cited from earlier work
[2] = test system: S. aureus; experiment: microbe, parasite or virus in culture; type: cell-based; conditions: Staphylococcus aureus, 18 h, MHB2, 18 h, 37°C
Description: (§1) Bacterial clinical isolates, used for initial screening and in previous studies ([Deslouches et al., 2013]; [Lin et al., 2018]), were anonymously provided by the clinical microbiology laboratory of the University of Pittsburgh medical Center. The panel used for secondary screening was from [CDC (2013)] (Supplementary Table 3), with resistance profiles data. Bacteria are stored in lock-secured –80°C freezer and typically retrieved by obtaining single colonies on agar plates prior for subsequent liquid broth cultures. Suspensions of test bacteria were prepared from log phase of growth by diluting overnight cultures at 1:100 with fresh cation-adjusted MHB (MHB2, Millipore Sigma, United States) and incubating for additional 3–4 h. Bacteria were spun at 3,000 × g for 10 min and the pellet resuspended in test condition media (Millipore Sigma, United States) to determine bacterial turbidity using a Den-1B densitometer (Grant Instruments, United States) at 0.5 McFarland (unit of bacterial density) corresponding to […].
(§2) To examine antibacterial activity, we used minor modifications of a standard growth inhibition assay endorsed by the Clinical and Laboratory Standards Institute (CLSI), as previously described ([Deslouches et al., 2013]). Bacteria were incubated with each of the indicated peptides in MHB2. The bacterial cells were kept in an incubator for 18 h at 37°C, which is linked to a robotic system that feeds a plate reader every hour with one of 8 × 96-well plates. This set-up allows the collection of growth kinetic data at A 570 (absorbance at 570 nm) to examine growth inhibition in real time (BioTek Instruments, United States). […] The assays are typically repeated a second time. If the MIC is different, a third experimental trial is performed to confirm the MIC. To assess bactericidal properties of the peptide, the assay was modified by using 15% fetal bovine serum (FBS, for a more physiologically relevant test condition) mixed with 25% MHB2 and 60% PBS. Bacterial cells (colony forming unit/mL or CFU/mL) were enumerated after incubating treated bacteria for 3 h and plating serially diluted samples on broth agar medium at 37°C overnight. Minimum bactericidal concentration (MBC) was determined as the peptide concentration at which complete bacterial killing was observed. […] Data were analyzed using GraphPad Prism software.

[3] = test system: CDC AR isolates; design: key: S (green), susceptible; I (blue), intermediate; R (red), resistant; conditions: data provided by the CDC, ref CDC, cited from earlier work
Description: Supplement Table_3.XLSX, sheet "CDC AR isolates profiles" | column: G(-) strains

[4] = test system: E. Faecium; experiment: microbe, parasite or virus in culture; type: cell-based, Enterococcus Facium; conditions: Enterococcus faecium, 18 h, MHB2, 18 h, 37°C
Description: as §1, §2

[5] = test system: K. pneumoniae; experiment: microbe, parasite or virus in culture; type: cell-based, Klebsiella pneumoniae; conditions: 18 h
Description: as §1, §2

[6] = test system: CD-1 mice; experiment: Mouse toxicity, maximum tolerated dose (IV); type: in vivo
Description: For all animal experiments, we used the protocol #18071776 approved by the Institutional Animal Care and Use Committee (IACUC) of the University of Pittsburgh, which is consistent with the NIH guide for the care and use of laboratory animals. In a preliminary (pilot) experiment, female CD-1 mice (three per group) weighing about 20 g were injected different doses of peptides up to 45mpk via a lateral tail vein (IV) to determine an MTD (dose that results in no apparent morbidity or mortality). To confirm the MTD determined in the pilot study, CD-1 mice (seven per group) were randomized to receive a dose based on the preliminary MTD (IV) or PBS (100 μL). The animals were monitored for up to 7 days for morbidity and survival.

[7] = test system: ESKAPE pathogens and Escherichia coli; conditions: ESKAPE pathogens and
Description: Bacteria were incubated with each of the indicated peptides in MHB2. […] To assess bactericidal properties of the peptide, the assay was modified by using 15% fetal bovine serum (FBS, for a more physiologically relevant test condition) mixed with 25% MHB2 and 60% PBS. […] Data were analyzed using GraphPad Prism software.

[8] = test system: human red blood cells (RBCs); conditions: at 16 μM; ref de Breij et al., 2018; cited from earlier work
[9] = test system: A. baumannii; experiment: microbe, parasite or virus in culture; type: cell-based, Acinetobacter baumannii; conditions: Acinetobacter baumannii, 18 h, MHB2, 18 h, 37°C
Description: as §1, §2

[10] = test system: E. coli; experiment: microbe, parasite or virus in culture; type: cell-based, Escherichia coli; conditions: Escherichia coli, 18 h, MHB2, 18 h, 37°C
Description: as §1, §2

[11] = test system: P. aeruginosa; experiment: microbe, parasite or virus in culture; type: cell-based, Pseudomonas aeruginosa; conditions: Pseudomonas aeruginosa, 18 h, MHB2, 18 h, 37°C
Description: as §1, §2

[12] = test system: Enterobacter spp; experiment: microbe, parasite or virus in culture; type: cell-based, Enterobacter spp (aerogenes, cloacae); conditions: Enterobacter, 18 h, UPMC, MHB2, 18 h, 37°C
Description: as §1, §2

Compound: Cc1onc(-c2ccccc2)c1C(=O)N[C@@H]1C(=O)N2[C@@H]1SC(C)(C)[C@@H]2C(=O)O [Oxacillin, reference compound]
- Antibiotic susceptibility profile [1]: S
- MIC ([2]; strain SA12212, UPMC): 8 µM (≈ 3.21 µg/mL)
- MIC ([2]; strain SA18710, UPMC): 4 µM (≈ 1.61 µg/mL)
- MIC ([2]; strain SA49775): 0.25 µM (≈ 0.1 µg/mL)
- MIC ([2]; strain SA-US300): 4 µM (≈ 1.61 µg/mL)
- Antibiotic susceptibility profile ([3]; Staphylococcus aureus SA462, CDC AR isolate): S
- Antibiotic susceptibility profile ([3]; Staphylococcus aureus SA463, CDC AR isolate): S
- Antibiotic susceptibility profile ([3]; Staphylococcus aureus SA561, CDC AR isolate): R
- MIC ([4]; strain EF23614, UPMC): 0.25 µM (≈ 0.1 µg/mL)
- MIC ([4]; strain EF24670, UPMC): > 16 µM
- MIC ([4]; strain EF26215, UPMC): 2 µM (≈ 0.803 µg/mL)
- MIC ([4]; strain EF26692, UPMC): 2 µM (≈ 0.803 µg/mL)

Compound: RRVVRRWRRVVRRWVRVWRRVVRR [E3]
- MIC [5]: 8 µM
- % RBC lysis: 17%

Compound: H-RWVRRVRRVWRRVRRVVRRW-OH [E7]
- % RBC lysis: 5%

Compound: RRVWRWVRRVWRWVRR [E35]
- morbidity and mortality ([6]; 7 CD-1 mice, 30 mpk systemically, monitored up to 7 days): no apparent morbidity and mortality
- tolerated systemic dose (maximum tolerated dose, MTD) ([6]; CD-1 mice, tail vein (IV), pilot with doses up to 45 mg/kg): up to 30 mpk
- % RBC lysis: 22%

- mean MIC [7]: > 10 µM
Compound: CC(C)C[C@H](NC(=O)[C@H](Cc1ccccc1)NC(=O)[C@@H]1CCCN1C(=O)[C@H](Cc1c[nH]c2ccccc12)NC(=O)[C@H](Cc1c[nH]c2ccccc12)NC(=O)[C@H](Cc1c[nH]c2ccccc12)NC(=O)[C@@H]1CCCN1C(=O)[C@H](Cc1ccccc1)NC(=O)[C@H](CCCNC(=N)N)NC(=O)[C@H](CCCNC(=N)N)NC(=O)[C@@H](N)C(C)C)C(=O)N[C@@H](CCCNC(=N)N)C(=O)N[C@@H](CCCNC(=N)N)C(=O)O [tritrpticin]

Compound: Ac-LKRVWKRVFKLLKRYWRQLKKPVR-NH2 [SAAP-148]
- RBC lysis [8]: moderate RBC lysis

- MIC ([9]; strain AB-A2, UPMC clinical strain, A570, confirmed by 2nd or 3rd trial): 1 µM (≈ 0.547 µg/mL)
- MIC ([9]; strain AB-A3, UPMC): > 16 µM
- MIC ([9]; strain AB-F8, UPMC): > 16 µM
- MIC ([9]; strain AB-F9, UPMC): 2 µM (≈ 1.09 µg/mL)
- MIC ([5]; Klebsiella pneumoniae, strain KP43816, MHB2, 18 h, 37°C): 1 µM (≈ 0.547 µg/mL)
- MIC ([5]; Klebsiella pneumoniae, strain KPA5 (colistin-resistant), UPMC, MHB2, 18 h, 37°C): 12 µM (≈ 6.56 µg/mL)
- MIC ([5]; Klebsiella pneumoniae, strain KPB3, UPMC, MHB2, 18 h, 37°C): 8 µM (≈ 4.37 µg/mL)
- MIC ([5]; Klebsiella pneumoniae, strain KPC3, UPMC, MHB2, 18 h, 37°C): > 16 µM
- MIC ([10]; strain Eco25922): 1 µM (≈ 0.547 µg/mL)
- MIC ([10]; strain YDC107, UPMC): 4 µM (≈ 2.19 µg/mL)
- MIC ([10]; strain YDC337, UPMC): > 16 µM
- MIC ([10]; strain YDC748, UPMC): > 16 µM
- MIC ([11]; strain PA97-5, UPMC): 1 µM (≈ 0.547 µg/mL)
- MIC ([11]; strain PA129-5, UPMC): 2 µM (≈ 1.09 µg/mL)
- MIC ([12]; strain EA518 (aerogenes)): > 16 µM
- MIC ([12]; strain EA596 (aerogenes)): > 16 µM
- MIC ([12]; strain EC470 (cloacae)): > 16 µM
- MIC ([12]; strain EC560 (cloacae)): > 16 µM
- MIC ([4]; strain EF23614, UPMC): 8 µM (≈ 4.37 µg/mL)
- MIC ([4]; strain EF24670, UPMC): > 16 µM
Compound: CC(C)(O/N=C(\C(=O)N[C@@H]1C(=O)N2C(C(=O)[O-])=C(C[n+]3ccccc3)CS[C@H]12)c1csc(N)n1)C(=O)O [Ceftazidime, reference compound]
- Antibiotic susceptibility profile ([3]; Acinetobacter baumannii AB273, CDC AR isolate): R
- Antibiotic susceptibility profile ([3]; Acinetobacter baumannii AB274, CDC AR isolate): R
- Antibiotic susceptibility profile ([3]; Acinetobacter baumannii AB275, CDC AR isolate): R
- Antibiotic susceptibility profile ([3]; Acinetobacter baumannii AB276, CDC AR isolate): R
- Antibiotic susceptibility profile ([3]; Enterobacter cloacae E62, CDC AR isolate): S
- Antibiotic susceptibility profile ([3]; Enterobacter cloacae E544, CDC AR isolate): S
- Antibiotic susceptibility profile ([3]; Enterobacter cloacae E545, CDC AR isolate): S
- Antibiotic susceptibility profile ([3]; Enterobacter cloacae E546, CDC AR isolate): S
- Antibiotic susceptibility profile ([3]; Escherichia coli EC541, CDC AR isolate): S
- Antibiotic susceptibility profile ([3]; Escherichia coli EC543, CDC AR isolate): S
- Antibiotic susceptibility profile ([3]; Escherichia coli EC544, CDC AR isolate): S
- Antibiotic susceptibility profile ([3]; Escherichia coli EC549, CDC AR isolate): S
- Antibiotic susceptibility profile ([3]; Klebsiella pneumoniae KP542, CDC AR isolate): R
- Antibiotic susceptibility profile ([3]; Klebsiella pneumoniae KP548, CDC AR isolate): R
- Antibiotic susceptibility profile ([3]; Klebsiella pneumoniae KP550, CDC AR isolate): R
- Antibiotic susceptibility profile ([3]; Klebsiella pneumoniae KP552, CDC AR isolate): S
- Antibiotic susceptibility profile ([3]; Pseudomonas aeruginosa PA229, CDC AR isolate): R
- Antibiotic susceptibility profile ([3]; Pseudomonas aeruginosa PA230, CDC AR isolate): R
- Antibiotic susceptibility profile ([3]; Pseudomonas aeruginosa PA231, CDC AR isolate): R
- Antibiotic susceptibility profile ([3]; Pseudomonas aeruginosa PA232, CDC AR isolate): S
- Antibiotic susceptibility profile ([3]; Pseudomonas aeruginosa PA239, CDC AR isolate): R
